Laboratory results from US7462634B2, “N-(pyridin-2-yl)-sulfonamide derivatives” (Agouron Pharmaceuticals, Inc., priority 2005, dated 2008).

Columns and labels:
[1] = molecular target: T1, human 11βHSD1 (Homo sapiens, UniProt P28845); assay: 11βHSD1 enzymatic assay (Kiapp determination); format: biochemical
Protocol: The 11βHSD1 assay was performed in a 100 mM Triethanolamine buffer pH 8.0, containing 200 mM NaCl, 0.02% n-dodecyl β-D-maltoside, 5% glycerol, 5 mM β-mercaptoethanol. A typical reaction for the determination of Kiapp values was carried at room temperature in a Corning® u-bottom 96-well plate and is described as follows: 11βHSD1 enzyme (5 nM, final concentration) was pre-incubated in the presence of the inhibitor and NADPH (500 μM, final concentration) for at least 30 minutes in the assay buffer. When pre-incubation was completed, the reaction was initiated by adding the regenerating system (2 mM Glucose-6-Phosphate, 1 U/mL Glucose-6-Phosphate dehydrogenase, and 6 mM MgCl2, all the concentration reported are final in the assay buffer), and 3H-cortisone (200 nM, final concentration). After 60 minutes, 60 μL of the assay mixture was transferred to a second 96-well plate and mixed with an equal volume of dimethylsulfoxide to stop the reaction. A 15 μL aliquot from the reaction mixture was loaded into a C-18 column (Polaris C18-A, 50×4.6 mm, 5μ, 180 Angstrom from Varian) connected to an automated High-throughput Liquid Chromatography instrument developed by Cohesive Technologies, commercially available from Franklin, Mass. USA, with a β-RAM model 3 Radio-HPLC detector from IN/US, commercially available from Tampa, Fla. USA. The substrate and product peaks were separated by using an isocratic mixture of 43:57 methanol to water (v/v) at a flow rate of 1.0 mL/min.
The initial reaction velocities were measured by stopping the reaction at 60 min and by measuring the area of product formation in the absence and the presence of various concentrations of inhibitors. The Kiapp values were determined using the equation for tight-binding inhibitor developed by Morrison, J F. (Morrison J F. Biochim Biophys Acta. 1969; 185: 269-86):
Where vi, and vo are the rates of cortisol formation in the presence and in the absence of inhibitor, respectively, I is the inhibitor concentration and E is the 11βHSD1 concentration in the assay buffer. All the concentrations reported are the final concentrations in the assay buffer
See also Morrison, J. F., “Kinetics of the reversible inhibition of enzyme-catalysed reactions by tight-binding inhibitors,” Biochim Biophys Acta., 1969; 185: 269-86.

[2] = molecular target: T1, human 11βHSD1; assay: HEK293-11βHSD1/GRE-Luciferase cell-based assay; design: expressed in transfected cells; details: HEK293 cells over-expressing human 11βHSD1, GRE-luciferase readout, cortisone substrate, 6 h; read-out: HEK EC50
Protocol: HEK293-11 βHSD1/GRE-Luciferase Cell-Based Assay
Inhibition of 11βHSD1 enzyme activity was also measured using human kidney HEK293 stable transfected cells, over-expressing human 11βHSD1, and a reporter plasmid containing DNA sequences for specific recognition of glucocorticoid-activated glucocorticoid receptors (GRE), using a method similar to that described in Bujalska et al, Human 11β-hydroxysteroid dehydrogenase: Studies on the stably transfected isoforms and localization of the type 2 isozyme within renal tissue, Steroids, 62(1), […], 77-82 . These sequences were fused to a luciferase reporter gene (Luc) allowing for quantification of 11 βHSD1 enzyme modulation. […] Cortisol (but not cortisone) binds and activates glucocorticoid receptors (GR), which will result in activation of luciferase and production of light (assay readout). A compound with the capability of inhibiting 11βHSD1 will reduce the luciferase signal, as compared to the cortisone control (enzyme substrate).
Cells were plated in 384 Well Flat Bottom White Polystyrene TC-Treated Microplates, at 20,000 cell/well at a volume of 40 μl/well, in serum-free DME Medium. Plates were incubated at 37° C., 5% CO2 overnight before addition of inhibitor compounds. Different concentrations of inhibitor compounds were added in 10% (v/v) dimethylsulfoxide (5 μL/well), followed by addition of 3 μM Cortisone (5 μL/well), and cells were incubated at 37° C. (5% CO2) for six hours. At the end of the incubation, 25 μL/well SteadyLite HTS were added and plates were incubated 10min at room temp on shaker. Plates were then read on Top Count using 384HSD1 program. The concentration of inhibitor compound causing 50% inhibition of light signal was determined via a custom made Excel Macro. All results were compared to 100% activation control, i.e. cells treated only with cortisone (no inhibitors added).

[3] = molecular target: T1, human 11βHSD1; assay: 11βHSD1 enzymatic assay, percentage of inhibition; format: biochemical; details: inhibitor at 0.1 uM
Protocol: Percentage of inhibition was determined in a 100 mM Triethanolamine buffer, pH 8.0, 200 mM NaCl, 0.02% n-dodecyl β-D-maltoside and 5mM β-ME. A typical reaction was carried on a Corning® u-bottom 96-well plate and is described as follows: 11βHSD1 enzyme (5 nM, final concentration) was pre-incubated in the presence of the inhibitor and NADPH (500 μM, final concentration) for at least 30 minutes in the assay buffer. When pre-incubation was completed, the reaction was initiated by adding the regenerating system (2 mM Glucose-6-Phosphate, 1 U/mL Glucose-6-Phosphate dehydrogenase, and 6 mM MgCl2, all the concentration reported are final in the assay buffer), and 3H-cortisone (200 nM, final concentration). After 60 minutes, 60 μL of the assay mixture was transferred to a second 96-well plate and mixed with an equal volume of dimethylsulfoxide to stop the reaction. A 15 μL aliquot from the reaction mixture was loaded into a C-18 column (Polaris C18-A, 50×4.6 mm, 5μ, 180 Angstrom from Varian) connected to an automated High-throughput Liquid Chromatography instrument developed by Cohesive Technologies commercially available from Franklin, Mass., with a β-RAM model 3 Radio-HPLC detector from IN/US commercially available from Tampa, Fla. The substrate and product peaks were separated by using an isocratic mixture of 43:57 methanol to water (v/v) at a flow rate of 1.0 mL/min.
Percent Inhibition was calculated based on the following equation: (100−(3H-Cortisol peak area with inhibitor/3Hcortisol peak area without inhibitor)×100).
[1,2-3H]-cortisone is commercially available from American Radiolabeled Chemicals Inc. of St. Louis, Mo. USA. NADPH while Glucose-6-Phosphate and Glucose-6-Phosphate dehydrogenase was purchased from Sigma®.

[4] = molecular target: T1, human 11βHSD1; assay: Human Fa2N-4 immortalized cell-based assay (cortisol accumulation); details: Fa2N-4 human hepatocyte-derived cells, cortisol EIA, 5 μM cortisone, overnight
Protocol: Human Fa2N-4 Immortalized Cell-Based Assay
Fa2N4 is a cell line derived from human hepatocytes, developed by MultiCell Technologies, Inc. (U.S. Pat. No. 6,107,043), and commercialized by XenoTech LLC via an exclusive license. […] Inhibition of 11βHSD1 enzyme activity was assessed in this cell model by measuring decrease in cortisol (enzyme product) accumulation in cultures co-treated with cortisone (enzyme substrate) and the potential enzyme inhibitor. Cortisol signal was quantitatively determined in the supernatant of treated cells by means of the Correlate-Enzyme Immunoassay (EIA)™Cortisol kit (Assay Designs, Inc.).
Cells were plated in 96 Well Flat Bottom Collagen-coated Microplates, 20,000 cell/well, in 200 μl/well MFE™ (Multi-functional Enhancing—XenoTech, LLC) medium, containing antibiotics (penicillin-streptomycin) and supplemented with 10% of heat inactivated fetal bovine serum. Plates were incubated at 37° C., 5% CO2 overnight. The following day, and before addition of cortisone and inhibitor compounds, medium was changed to Hepatocyte Basal Medium (HBM—Cambrex Bio ScienceWalkersVille, Inc) containing only antibiotics. Thirty-minute pre-incubation with various concentrations of inhibitor compounds (20 μL/well), was followed by addition of 5 μM Cortisone (20 μL/well), and cells were incubated at 37° C., 5% CO2 overnight. At the end of the incubation, 100 μL of each supernatant was analyzed for cortisol content using the Cortisol-EIA kit from Assay Designs, following manufacturers' instructions. Plates were read on a plate reader (Spectra MAX PLUS—Molecular Devices Corporation) at 405 nm, with correction at 580 nm. All results were compared to 100% activation control, i.e. cells treated only with cortisone (no inhibitors added).

T1 sequence (P28845 whole entry): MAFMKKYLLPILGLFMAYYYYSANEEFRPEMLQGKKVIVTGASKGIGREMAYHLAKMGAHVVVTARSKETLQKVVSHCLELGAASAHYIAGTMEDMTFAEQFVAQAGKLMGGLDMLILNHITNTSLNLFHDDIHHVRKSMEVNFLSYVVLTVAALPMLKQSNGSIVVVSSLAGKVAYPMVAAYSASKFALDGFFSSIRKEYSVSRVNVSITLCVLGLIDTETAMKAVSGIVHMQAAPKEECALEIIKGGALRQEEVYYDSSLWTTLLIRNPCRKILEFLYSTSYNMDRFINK

Row | Compound | Ki [1] | EC50 [2] | % inh @ 0.1 uM [3] | inhibition at 0.1 µM [3] | EC50 [4]
1 | CC(O)c1cccc(NS(=O)(=O)c2ccc(-c3ccc(C#N)cc3)cc2)n1 (single isomer, unassigned; (+)) [2(+), (+)-4′-Cyano-N-[6-(1-hydroxyethyl)pyridin-2-yl]biphenyl4-sulfonamide] | 19 nM | 160 nM | 85% |  | 56 nM
2 | CCC(O)c1cccc(NS(=O)(=O)c2ccc(-c3ccc(C#N)cc3)cc2)n1 (single isomer, unassigned; (-)) [3(−), (−)4′-cyano-N-[6-(1-hydroxypropyl)pyridin-2-yl]biphenyl-4-sulfonamide] |  |  | 59% |  | 
3 | CC(O)c1cccc(NS(=O)(=O)c2ccc(-c3ccc(C#N)cc3)cc2)n1 (single isomer, unassigned; (-)) [2(−), (−)4′-Cyano-N-[6-(1-hydroxyethyl)pyridin-2-yl]biphenyl4-sulfonamide] |  |  | 53% |  | 
4 | CCCCOc1ccc(S(=O)(=O)Nc2cccc(N)n2)cc1 [Example 7, N-(6-aminopyridin-2-yl)-4-butoxybenzenesulfonamide] | 3.8 nM |  |  | 100% | 
5 | CCC(O)c1cccc(NS(=O)(=O)c2ccc(-c3ccc(C#N)cc3)cc2)n1 (single isomer, unassigned; (+)) [3(+), (+)-4′-cyano-N-[6-(1-hydroxypropyl)pyridin-2-yl]biphenyl-4-sulfonamide] | 5.19 nM | 50.7 nM | 97.9% |  | 11.6 nM
6 | Cc1cc(-c2ccc(C#N)cc2)ccc1S(=O)(=O)Nc1cccc(C(C)O)n1 (single isomer, unassigned; (+)) [4(+), (+)4′-Cyano-N-[6-(1-hydroxyethyl)pyridin-2-yl]-3-methylbiphenyl4-sulfonamide] | 2.7 nM | 23.1 nM |  | 100% | 7.86 nM

The next lines start with results.

Row | Ki [1] | EC50 [2] | % inh @ 0.1 uM [3] | inhibition at 0.1 µM [3] | Compound | EC50 [4]
7 | 9.7 nM |  |  | 93% | Cc1cc(S(=O)(=O)Nc2cccc(N)n2)c(F)cc1Cl [Example 5, N-(6-aminopyridin-2-yl)-4-chloro-2-fluoro-5-methylbenzenesulfonamide] | 
8 |  |  |  | 84% | Cc1cc(-c2ccc(C#N)cc2)ccc1S(=O)(=O)Nc1cccc(C(C)O)n1 (single isomer, unassigned; (-)) [4(−), (−)4′-Cyano-N-[6-(1-hydroxyethyl)pyridin-2-yl]-3-methylbiphenyl4-sulfonamide] | 
9 | 1.8 nM |  |  | 100% | Cc1cc(N)nc(NS(=O)(=O)c2sc(-c3ccc(C#N)cc3)nc2C)c1 [Example 1, N-(6-amino-4-methylpyridin-2-yl)-2-(4-cyanophenyl)-4-methyl-1,3-thiazole-5-sulfonamide] | 
10 |  | 423 nM |  |  | N#Cc1ccc(-c2ccc(S(=O)(=O)Nc3cccc(CCO)n3)cc2)cc1 [Comparative Example A, reference compound] | 77.7 nM
11 | 4.8 nM |  |  | 88% | CCNc1cccc(NS(=O)(=O)c2ccc(-c3ccc(C#N)cc3)cc2)n1 [Example 8, 4′-cyano-N-[6-(ethylamino)pyridin-2-yl]biphenyl4-sulfonamide] | 
12 | 2.8 nM | 59 nM |  | 100% | N#Cc1ccc(-c2ccc(S(=O)(=O)Nc3cccc(CO)n3)cc2)cc1 [Example 9, 4′-cyano-N-[6-(hydroxymethyl)pyridin-2-yl]biphenyl-4-sulfonamide] | 21.8 nM
13 | 2.8 nM |  |  | 98% | Cc1cc(N)nc(NS(=O)(=O)c2cc(C)c(Cl)cc2F)c1 [Example 6, N-(6-amino-4-methylpyridin-2-yl)-4-chloro-2-fluoro-5-methylbenzenesulfonamide] | 
